Measured values taken from US20260337125A1, “RADIOLABELED TYROSINE DERIVATIVE AND APPLICATION THEREOF” (Osaka University, priority 2022, published 2026).

Legend:
[1] = system: CDDP-resistant A549 (A549 CDDP-r); test: Cell viability of CDDP-resistant A549 (A549 CDDP-r) with CDDP; type: cell-based, human; settings: CDDP 100 μg/mL
Experimental: Cisplatin (CDDP) was added to a human lung cancer cell line, A549 at an initial concentration of 1 μg/mL. After 3 days, dead cells were removed, and CDDP was again added. Cells that grew like A549 even in the presence of CDDP were isolated and maintained for 3 months while gradually increasing the concentration of CDDP in a culture medium.

PANC1 tumor = test: Measurement of accumulated amounts of 211At-labeled compounds in PANC1 tumor-bearing mice; type: in vivo, human (PANC1) in Balb/c-nu/nu mice; settings: for accumulation in the tumor sites compared to 211At-AAMT: 10 minutes and 1 hour after administration, tail vein; for retention at tumor sites: compared to 211At-AAMT
Experimental: (§1) Radiation doses before and after the administration were measured, and a difference between them was defined as an injected dose (ID). Ten minutes and one hour after administration, the mice were anesthetized by isoflurane inhalation, the tumors were isolated by autopsy in chronological order, and their radiation doses and weights were measured using a gamma counter (2480 Wizard^2, PerkinElmer) and a semimicro scale (Shimadzu Corporation, readability 10 μg), respectively. For comparison between accumulated amounts, accumulated amounts per unit amount (% ID/g) were calculated.
(§2) In Table 1, the amounts of the ^211At-labeled compounds accumulated in tumors of the PANC1 tumor-bearing models (% ID/g) are shown. It should be noted that in Table 1, “OMe” is ^211At-AAMT-OMe, “OEt” is ^211At-AAMT-OEt, “OPr” is ^211At-AAMT-OPr, and “OH” is ^211At-AAMT.

[2] = as above; type: in vivo, human (PANC1) in Balb/c-nu/nu mice; settings: tumor, iv, 0.1 MBq/animal, 0.1 MBq/0.2 mL per mouse, tail vein, read-out: tumor accumulation; for tissue uptake at 10 min: 10 minutes after administration; for tissue uptake at 1 h: 1 hour after administration
Experimental: as §1, §2

[3] = TLC analysis of stability after purification; type: physicochemical; settings: 24 hours after purification, in sodium ascorbate aqueous solution (final concentration 1%)
Experimental: The crude product solution (1 μL) was analyzed by thin-layer chromatography (TLC). The sample was spotted on a thin-layer plate (silica gel 60F254), and a mixed solvent of acetonitrile/water (2/1) was used as a developing solvent. The thin-layer plate was exposed to an imaging plate (BAS IP MS 2025E, GE Healthcare) for about 15 min, and then analyzed by a bioimage analyzer (Tyhoon™ FLA-7000, Cytiva). The results are shown in FIG. 2. ^211At-AAMT-OMe in the crude product solution was detected at Rf 0.80, and the radiochemical yield (RCY) was 81.3%.
(§3) The crude product solution was injected into an HLB column (Oasis, WAT-186005125) equilibrated with sterile distilled water (1 mL) to capture the target product in the cartridge, and sterile distilled water was passed through the cartridge to elute impurities. Next, 30% ethanol solution (500 μL) was passed through the cartridge to elute the target product into sodium ascorbate aqueous solution (500 μL, final concentration 1%), thus obtaining the purified product. The radiochemical yield and radiochemical purity of the purified product were 81% and 98%, respectively.
Before purification, immediately after production, 3 hours after production, and 24 hours after production, ^211At-AAMT-OMe was analyzed by thin-layer chromatography (TLC) in the same manner as described above.
as §3, with “product. This purified product was analyzed by thin-layer chromatography (TLC) in the same manner as described above.” for “product.”, “79.6%” for “81%”, “99.9%,” for “98%,”
24 hours after production, (R)-^211At-AAMT-OMe was analyzed by thin-layer chromatography (TLC) in the same manner as described above.
as §3, with “product. This purified product was analyzed by thin-layer chromatography (TLC) in the same manner as described above.” for “product.”, “75.9%” for “81%”, “99.27%,” for “98%,”
24 hours after production, ^211At-AAMT-OEt was analyzed by thin-layer chromatography (TLC) in the same manner as described above.
The crude product solution was injected into an HLB column (Oasis, WAT-186005125) equilibrated with sterile distilled water (1 mL) to capture the target product in the cartridge, and sterile distilled water was passed through the cartridge to elute impurities. […] This purified product was analyzed by thin-layer chromatography (TLC) in the same manner as described above. […]
24 hours after production, ^211At-AAMT-OPr was analyzed by thin-layer chromatography (TLC) in the same manner as described above. […]

PANC1 = test: Cellular uptake test (Using PANC1); type: cell-based, human; settings: for uptake speed: PANC1 cells, uptake level immediately after addition
Experimental: • Cells to be used: PANC1 • Culture medium to be used: D-MEM (containing 10% FBS, 1% P/S)
(§4) Two days before a test day, a cell suspension was prepared in such a manner that the concentration of predetermined cells was 1×10^5 cells/mL in the same manner as in Test Example 1. The cell suspension was seeded in a 24-well multiculture plate at a volume of 0.5 mL per well. On the day of the test, cultures were confirmed to be subconfluent (which refers to a state where 70-80% of the well is covered in density). The cells were washed twice with warmed PBS(-) Buffer (166-23555, FUJIFILM Wako Pure Chemical Corporation), the culture medium was replaced with HBSS(-) Buffer (085-09355, FUJIFILM Wako Pure Chemical Corporation), and the plate was left to stand in an incubator (MINIcell-35, WakenBtech Co., Ltd) until an RI addition test.
(§5) ^211At-AAMT-OMe, ^211At-AAMT-OEt, ^211At-AAMT-OPr, or ^211At-AAMT was added to the prepared cells at 10 μL/well. BCH (LAT1 inhibitor, 20 mM) or unlabeled AMT (α-methyl tyrosine, 1 μg/mL) was previously (15 minutes before) added ([…]). The cells were cultured (CO2 5%, 37 °C), and after 30 minutes, the liquid was removed by suction using an aspirator. The cells were washed twice with PBS(-). The cells were lysed by adding 0.1N NaOH to obtain a lysate, and the radioactivity of the lysate was measured using a γ counter. After the radioactivity measurement, the lysate was loaded into a 96-well plate at a volume of 10 μL per well, the protein amount was measured by the BCA method, and the number of cells was corrected based on the protein amount. Absorbance was measured by MultiScanFC (Thermo Fisher). The uptake level of ^211At-AAMT-OMe, ^211At-AAMT-OEt, ^211-At-AAMT-OPr, or ^211At-AAMT into the cells (number of radioactivity counts/protein amount) was calculated.

HEK293-hLAT1 = HEK293-hLAT1 (Homo sapiens, UniProt Q01650); test: Cellular uptake test (Using HEK293); type: cell-based; settings: inhibitor added 15 minutes before; BCH 20 mM or unlabeled AMT 1 μg/mL
HEK293-hLAT1, sequence (Q01650 whole entry): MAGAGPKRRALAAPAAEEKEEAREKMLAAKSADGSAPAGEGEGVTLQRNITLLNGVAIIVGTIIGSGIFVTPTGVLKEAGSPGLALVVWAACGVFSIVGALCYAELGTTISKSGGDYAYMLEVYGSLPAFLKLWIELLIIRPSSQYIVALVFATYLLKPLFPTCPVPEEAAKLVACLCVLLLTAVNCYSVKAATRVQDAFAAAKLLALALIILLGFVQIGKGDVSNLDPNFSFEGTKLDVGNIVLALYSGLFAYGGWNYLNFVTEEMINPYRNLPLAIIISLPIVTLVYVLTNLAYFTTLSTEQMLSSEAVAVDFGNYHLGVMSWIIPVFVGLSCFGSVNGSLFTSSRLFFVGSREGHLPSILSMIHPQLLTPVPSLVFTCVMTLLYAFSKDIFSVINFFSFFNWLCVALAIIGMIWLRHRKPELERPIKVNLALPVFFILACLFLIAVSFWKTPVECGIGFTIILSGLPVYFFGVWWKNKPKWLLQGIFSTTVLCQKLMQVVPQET
HEK293-hLAT1, sequence (P08195 102-630 partner): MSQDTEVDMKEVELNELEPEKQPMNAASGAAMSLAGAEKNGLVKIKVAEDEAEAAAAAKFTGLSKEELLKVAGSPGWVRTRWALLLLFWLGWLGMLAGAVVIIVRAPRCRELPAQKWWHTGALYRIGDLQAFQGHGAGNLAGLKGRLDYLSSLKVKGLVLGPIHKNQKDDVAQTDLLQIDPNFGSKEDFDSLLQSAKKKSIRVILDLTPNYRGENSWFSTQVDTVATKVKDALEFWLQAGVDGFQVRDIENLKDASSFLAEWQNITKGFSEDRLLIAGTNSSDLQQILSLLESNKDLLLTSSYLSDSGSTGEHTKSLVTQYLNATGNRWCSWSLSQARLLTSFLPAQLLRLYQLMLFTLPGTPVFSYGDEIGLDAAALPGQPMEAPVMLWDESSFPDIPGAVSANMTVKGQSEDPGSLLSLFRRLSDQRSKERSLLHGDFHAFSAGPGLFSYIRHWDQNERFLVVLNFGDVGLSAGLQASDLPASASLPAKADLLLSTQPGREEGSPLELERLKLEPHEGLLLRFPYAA
Experimental: • Cells to be Used: HEK293-Mock, HEK293-hLAT1, HEK293-hLAT2 (HEK293: Human Embryonic Kidney cells 293) • Culture medium to be used: E-MEM (containing 10% FBS, 1% P/S, 1% NEAA)
as §4, with “cells/mL.” for “cells/mL in the same manner as in Test Example 1.”
as §5, with “^211At-AAMT-OMe” for “^211At-AAMT-OMe, ^211At-AAMT-OEt, ^211At-AAMT-OPr,”, “^211At-AAMT-OMe” for “^211At-AAMT-OMe, ^211At-AAMT-OEt, ^211-At-AAMT-OPr,”

[4] = system: gemcitabine-resistant human pancreatic cancer cell line, PANC1 (PANC1 Gem-r); test: Cell viability of Gemcitabine-resistant PANC1 (PANC1 Gem-r) with gemcitabine; type: cell-based; settings: gemcitabine 30 μg/mL
Experimental: Gemcitabine (Gem) was added to a human pancreatic cancer cell line, PANC1 at an initial concentration of 100 ng/mL. After 3 days, dead cells were removed, and gemcitabine was again added. Cells that grew like a human pancreatic cancer cell line, PANC1 even in the presence of gemcitabine were isolated and maintained for 3 months while gradually increasing the concentration of gemcitabine in a culture medium.

[5] = system: human pancreatic cancer cell line (PANC1); type: in vivo, human (PANC1) in Balb/c-nu/nu mice; settings: 1 MBq/0.2 mL per mouse, tail vein
Text: The experiment was terminated 21 days after administration.

[6] = up to 21 days after administration

## [NH2][Pt]([NH2])([Cl])[Cl] [CDDP, Cisplatin]
[1]
  cell viability: still alive even at 100 μg/mL

## CCCOc1ccc(C[C@](C)(N)C(=O)O)cc1[At] [^211At-AAMT-OPr, (S)-3-astato(^211At)—O-propyl-α-methyltyrosine]
PANC1 tumor
  accumulation in the tumor sites compared to 211At-AAMT: more highly accumulated in the tumor sites than ^211At-AAMT
  retention at tumor sites: superior retention at tumor sites compared to ^211At-AAMT
PANC1 tumor; 1 hour after administration
  tumor accumulation, ranking: most highly accumulated 1 hour after administration
[2]
  tissue uptake at 10 min: 5.91 %ID/g
  tissue uptake at 1 h: 9.45 %ID/g
[3]
  decomposition by TLC: no decomposition
PANC1
  uptake level into cells (number of radioactivity counts/protein amount): comparable or superior
  uptake speed: comparable or superior

## C[C@](N)(Cc1ccc(O)cc1)C(=O)O [AMT, α-methyl tyrosine, reference compound]
HEK293-hLAT1
  inhibition of uptake of 211At-AAMT-OMe into HEK293-hLAT1 cells: significantly inhibited

## NC1(C(=O)O)CC2CCC1C2 (stereo not shown) [BCH, 2-aminobicyclo[2,2,1]heptane-2-carboxylic acid, reference compound]
HEK293-hLAT1
  inhibition of uptake of 211At-AAMT-OMe into HEK293-hLAT1 cells: significantly inhibited

## Nc1ccn([C@@H]2O[C@H](CO)[C@@H](O)C2(F)F)c(=O)n1 [gemcitabine, Gemcitabine]
[4]
  cell viability: still alive even at 30 μg/mL

## COc1ccc(C[C@@](C)(N)C(=O)O)cc1[At] [(R)-^211At-AAMT-OMe, (R)-3-astato(^211At)—O-methyl-α-methyltyrosine]
[3]
  decomposition by TLC: no decomposition

## COc1cc(C[C@](C)(N)C(=O)O)ccc1[At] [^211At-AAMPhe-OMe, (S)-α-methyl-4-astato(^211At)-3-methoxyphenylalanine]
PANC1 tumor
  accumulation in the tumor sites compared to 211At-AAMT: more highly accumulated in the tumor sites than ^211At-AAMT
[2]
  tissue uptake at 10 min: 3.77 %ID/g
  tissue uptake at 1 h: 6.38 %ID/g
[3]
  decomposition by TLC: no decomposition

## CCOc1ccc(C[C@](C)(N)C(=O)O)cc1[At] [^211At-AAMT-OEt, (S)-3-astato(^211At)—O-ethyl-α-methyltyrosine]
PANC1 tumor
  accumulation in the tumor sites compared to 211At-AAMT: more highly accumulated in the tumor sites than ^211At-AAMT
  retention at tumor sites: superior retention at tumor sites compared to ^211At-AAMT
[2]
  tissue uptake at 10 min: 4.21 %ID/g
  tissue uptake at 1 h: 3.59 %ID/g
[5]; 21 days
  apparent toxicity: apparent toxicity induced by their administration was not observed
  lesions other than tumor at autopsy: lesions other than tumor were not observed
[5]; [6]
  mouse body weight: gently increased
  tumor growth inhibiting effect: comparable to that of the ^211At-AAMT-OMe administration group
[3]
  decomposition by TLC: no decomposition
PANC1
  uptake level into cells (number of radioactivity counts/protein amount): comparable or superior
  uptake speed: comparable or superior
